Like-named read-outs stand apart in the source and are kept apart here.

By EC50 is commonly meant the concentration giving half of the maximal effect. In general, IC50 refers to the concentration that gives 50% inhibition. For orientation: CC50 means the concentration giving 50% cytotoxicity. Low readings indicate harm at low concentration, high ones better tolerance by the cells.

The subject of one data set is Adenovirus 5 (AdV5). The data set can be described thus: Cytopathic effects (CPE) reduction assay, AdV5 in HFF cells, 384-well. It is filed as cell-based, human adenovirus. The conditions noted are these: for SI: CC50/EC50, AdV5. In general terms: Cytopathic effects are the visible damage that an infection or toxin causes in cultured cells.
The nature of data set [1]: Cytotoxicity, CellTiter-Glo cell viability assay in HFF cells. The conditions noted are these: human. Here is the method: (§1) Human foreskin tissue was obtained from the University of Alabama at Birmingham tissue procurement facility with approval from the Institutional Review Board. The tissue was stored at 4° C. in cell culture medium consisting of minimum essential media (MEM) with Earle's salts supplemented with 10% fetal bovine serum (FBS; HyClone, Inc., Logan, Utah) and standard concentration of L-glutamine, amphotericin B (Fungizone), and vancomycin. The tissue was then placed in a phosphate-buffered saline solution, minced, and rinsed to remove the red blood cells. Tissue fragments were then resuspended in a trypsin-EDTA solution and incubated at 37° C. to disperse the cells, which were then collected by centrifugation. Cell pellets were then resuspended in 4 ml culture medium, placed in a 25-cm^2 tissue culture flask, and incubated at 37° C. for 24 h. The culture medium was then replaced with fresh medium and condition of the cells was monitored daily until a confluent cell monolayer was formed. The HFF cells were then expanded through serial passages in standard growth medium of MEM with Earle's salts supplemented with 10% FBS, L-glutamine, penicillin, and gentamicin. Each lot of cells was confirmed to be free of mycoplasma infection and routinely passaged or used for assays at or before passage 10.
(§2) Antiviral and cytotoxicity data were obtained in a series of three to five separate experiments for each virus to provide an accurate estimate of antiviral activity and statistical data. Each assay included positive and negative control compounds as well as infected and uninfected controls to ensure the integrity of the experiment.
(§3) The CPE reduction assays were performed in monolayers of human foreskin fibroblast (HFF) cells (5000/well) in 384-well plates in assay media consisting of MEM with Earle's salts, 2% FBS and standard concentrations of L-glutamine, penicillin and gentamycin. 5000 cells were seeded in 384-well microtiter plates and incubated at 37° C. in a humidified 5% CO2 incubator for 24 hours to allow for formation of confluent monolayers.
(§4) Cell monolayers were infected at a multiplicity of infection (MOI) of approximately 0.005 PFU/cell with virus strains including AdV5. […] Cytopathology was determined by the addition of CellTiter-Glo® reagent (Promega, Madison, Wis.). Concentrations of antiviral test compounds sufficient to reduce CPE by 50% (EC50) were interpolated from the experimental data using standard methods in Microsoft® Excel.

The next data set has as its system AdV5. The settings on record: background, Kinchington et al 2005 cited; read-out: IC50 against AdV5; cited from earlier work.
For data set [2], the system named is Human AdV6. The data set can be described thus: High dose filociclovir against intravenously administered AdV6 in immunosuppressed hamsters (Example 5). The settings on record: 5 days post challenge, CDV 20 mg/kg 3 times weekly. How it is done: Four dose levels were tested: 10, 30, 60, and 100 mg/kg p.o. q.d. The highest dose was determined based on rat toxicology data.
All hamsters were immunosuppressed using cyclophosphamide (CP). CP was administered intraperitoneally at a dose of 140 mg/kg, and then twice weekly at a dose of 100 mg/kg.
Filociclovir, in powdered form, was suspended in 0.4% carboxymethyl cellulose (Sigma C5678) at 1, 3, 6, and 10 mg/ml and sonicated to visual homogeneity and aliquots stored at 4° C. Aliquots were allowed to equilibrate to room temperature before dosing. Hamsters weighing approximately 100 g were dosed with a 1 ml volume of the appropriate suspension for the 10, 30, 60, and 100 mg/kg dose levels. References to “vehicle” refers to 0.4% carboxymethyl cellulose
The hamsters were divided into 8 groups, 15 hamsters/group, (with the exception of Group 2, which had only 5 hamsters; see Table 3), immunosuppressed, and then injected i.v. with vehicle (Groups 1-2) or 2×10^10 PFU/kg of AdV6 (Groups […]). Groups 1 and 3 received drug vehicle (p.o. q.d.), Group 4 received 10 mg/kg filociclovir (p.o. q.d.), Group 5 received 30 mg/kg filociclovir (p.o. q.d.), Group 6 received 60 mg/kg filociclovir (p.o. q.d.), Groups 2 and 7 received 100 mg/kg filociclovir (p.o. q.d.), and Group 8 received cidofovir (20 mg/kg, 3 times weekly). For all groups, drug administration started 1 day before challenge, and continued according to the schedule above for the duration of the study.
The body weights and any signs of morbidity of the animals were recorded daily. At 5 days post challenge, 5 hamsters (designated at the start of the experiment) from each group (with the exception of Group 2) were sacrificed, and gross pathological observation was performed. Serum and liver samples were collected and the virus burden in liver was determined by a TCID50 assay, and the serum was analyzed for transaminase levels. The remaining 10 hamsters were sacrificed at 14 days post challenge. Hamsters that became visually moribund before Day 14 were sacrificed as needed. In addition to the hamsters observed to be moribund, all hamsters that lost more than 20% of their original body weight were also sacrificed. For the hamsters sacrificed at the conclusion of the experiment and those sacrificed as moribund, serum and liver tissues were collected and banked for possible determination of serum transaminase levels and virus burden in the liver. Liver tissue was preserved in formalin for possible histopathological examination.

The test system of data set [3] is Human AdV6. Put plainly: Low dose filociclovir against intravenously administered AdV6 in immunosuppressed hamsters (Example 6). Here is the method: Three dose levels were tested: 1, 3, and 10 mg/kg p.o. q.d.
All hamsters were immunosuppressed using cyclophosphamide (CP) administered intraperitoneally at a dose of 140 mg/kg, and then twice weekly at a dose of 100 mg/kg. Filociclovir in powdered form was suspended in 0.4% carboxymethyl cellulose (Sigma C5678) at 0.1, 0.3, and 1.0 mg/ml and sonicated to visual homogeneity. Filociclovir was made up once weekly, aliquoted into daily portions, and stored at 4° C. Aliquots were allowed to equilibrate to room temperature before dosing.
Hamsters were distributed into 7 groups, 15 hamsters/group (see Table 4), immunosuppressed as described above, and injected i.v. with vehicle (Groups 1-2) or 4×10^10 PFU/kg of AdV6 (Groups 3-7). Groups 1 and 3 received drug vehicle (p.o. q.d.), Groups 2 and 6 received 10 mg/kg filociclovir (p.o. q.d.), Group 4 received 3 mg/kg filociclovir (p.o. q.d.), Group 5 received 1 mg/kg filociclovir (p.o. q.d.), and Group 7 received cidofovir (one dose of 37 mg/kg, followed by 20 mg/kg doses 3 times weekly). For all groups, drug administration started 1 day before challenge, and continued according to the schedule above for the duration of the study.
The body weights and any signs of morbidity of the animals were monitored and recorded daily. At 5 days post challenge, 5 hamsters (designated at the start of the experiment) from each group were sacrificed, and gross pathological observation was performed. Serum and liver were collected and virus burden in liver was determined by TCID50 assay and the serum was analyzed for transaminase levels. The remaining 10 hamsters were sacrificed at 14 days post challenge. Hamsters that became moribund before Day 14 were sacrificed as needed. In addition to the animals judged moribund by observation, we sacrificed all hamsters that lost more than 20% of their original body weight. For all animals, liver tissue was preserved in formalin for histopathological examination.

Data set [4] deals with human foreskin fibroblast (HFF) cells. The data set can be described thus: Cytotoxicity, CellTiter-Glo cell viability assay in HFF cells. How it is done:
as §1, §2, §3, §4
A general note: Cellular ATP, detected with luciferase, serves as a proxy for viable cell number.

The mark [5] stands for this setting: human foreskin fibroblast (HFF) cell monolayers, CC50, HFF cells, run with AdV5 assay, average and SD from five independent experiments.
Setting [6] is: Human mastadenovirus C, AdV5, HFF cells, 384 well CPE, average and SD from five independent experiments, read-out: EC50.
Where [7] appears, read: AdV5, HFF cells, 384 well CPE, average and SD from five independent experiments, read-out: EC50.
Where [8] appears, read: HFF cells, run with AdV5 assay, average and SD from five independent experiments.

Consider `Nc1nc(O)c2ncn(COC(CO)CO)c2n1` [GCV, ganciclovir], for which the EC50 with Adenovirus 5 (AdV5) (Human mastadenovirus C, HFF) came out at 66 ± 15.1 µM. Besides, the IC50 in the data set with Adenovirus 5 (AdV5) (Human mastadenovirus C, HFF, read-out: IC50 value against AdV5) is 66 µM; in the data set with AdV5 it was 66 ± 15.1 µM. Also, the CC50 in data set [1] (setting [5]) was more than 100 µM.

In the data set with Adenovirus 5 (AdV5) (Human mastadenovirus C, HFF), `Nc1ccn(C[C@@H](CO)OCP(=O)(O)O)c(=O)n1` [CDV, cidofovir, reference compound] came in with an EC50 of 4 ± 2 µM. The molecule also came in with a CC50 in data set [1] (setting [5]) of 97 ± 4 µM. Further, the “animals with elevated serum transaminase levels (ALT)” value in the data set on Human AdV6 [2] (filociclovir p.o. q.d. groups) is given as “none”. For the same molecule, the “virus burden in the liver” value with Human AdV6 [2] (TCID50) was “very low to nonquantifiable levels”. The “AdV6-induced liver damage, serum transaminase (ALT)” value in the data set with Human AdV6 [3] (CDV, 5 days post challenge) is on record as “completely prevented AdV6-induced liver pathology”. Also, the “AdV6 replication in the liver” value with Human AdV6 [3] (CDV, 5 days post challenge, TCID50) was “completely prevented AdV6 replication in the liver”. Also, the body weight loss result with Human AdV6 [3] (cidofovir 37 mg/kg once, then 20 mg/kg 3 times weekly) is given as “completely reversed body weight loss”.

In turn, `Nc1ncnc2c1ncn2CCOCP(=O)(O)O` [PMEA, adefovir] returned an SI in the data set on Adenovirus 5 (AdV5) of 2.1. Moreover, in the data set with Adenovirus 5 (AdV5) (setting [6]), the EC50 came to 48 ± 8 µM. Moreover, the CC50 in data set [1] is more than 100 µM.

For the molecule `OC[C@H]1O[C@@H](n2c(Br)nc3cc(Cl)c(Cl)cc32)[C@H](O)[C@@H]1O` [BDCRB, bromodichlororibobenzimidazole], the EC50 in the data set on Adenovirus 5 (AdV5) (setting [7]) worked out at 70 ± 39 µM. In the data set with Adenovirus 5 (AdV5), the SI is reported as 1.3. The CC50 in data set [4] (setting [8]) came out at 91 ± 13 µM.

Take `Nc1nc2c(ncn2COCCO)c(=O)[nH]1` [ACV, acyclovir]: in the data set with Adenovirus 5 (AdV5), the SI turned out to be 1.0. In addition, the EC50 in the data set on Adenovirus 5 (AdV5) (setting [6]) was more than 100 µM. In addition, the CC50 in data set [1] (setting [5]) was more than 100 µM.

The molecule `CCCCCCCCCCCCCCCCOCCCOP(=O)(O)CO[C@H](CO)Cn1ccc(N)nc1=O` [CMX001, brincidofovir] yielded an SI in the data set with Adenovirus 5 (AdV5) of 27.7. Besides, the EC50 with Adenovirus 5 (AdV5) (setting [6]) is less than 0.03 µM. The molecule also registered a CC50 in data set [1] (setting [5]) of 0.83 ± 0.7 µM.

As to `O=C(O)P(=O)(O)O` [PFA, foscarnet], the SI in the data set on Adenovirus 5 (AdV5) was 1.0. Moreover, in the data set on Adenovirus 5 (AdV5) (setting [6]), the EC50 was more than 1000 µM. In addition, in data set [1] (setting [5]), the CC50 is more than 1000 µM.

In the case of `O=c1[nH]c(=O)n([C@@H]2O[C@H](CO)[C@@H](O)[C@@H]2F)cc1I` [FIAU], the EC50 in the data set with Adenovirus 5 (AdV5) (setting [7]) is more than 100 µM. Besides, the SI in the data set with Adenovirus 5 (AdV5) was determined as 1.0. Further, the CC50 in data set [4] is more than 100 µM.

In the case of `O=c1[nH]c(=O)n([C@H]2C[C@H](O)[C@@H](CO)O2)cc1I` [IDU, idoxuridine], the SI with Adenovirus 5 (AdV5) is reported as 1.0. The EC50 in the data set with Adenovirus 5 (AdV5) (setting [6]) is more than 100 µM. For the same molecule, in data set [1] (setting [5]), the CC50 is more than 100 µM.

Take `O=c1[nH]c(=O)n([C@@H]2CO[C@H](CO)O2)cc1/C=C/Br` [L-BHDU, L-Bromovinyl-Hydroxymethyl-Dioxolan Uracil]: the EC50 in the data set on Adenovirus 5 (AdV5) (setting [7]) was more than 100 µM. Moreover, the SI in the data set on Adenovirus 5 (AdV5) is given as 1.0. In addition, the CC50 in data set [4] was more than 100 µM.

Molecule `Nc1nc2c(ncn2CCC(CO)CO)c(=O)[nH]1` [PCV, penciclovir] yielded an SI in the data set on Adenovirus 5 (AdV5) of 1.0. In addition, the EC50 with Adenovirus 5 (AdV5) (setting [6]) was more than 100 µM. Moreover, the CC50 in data set [1] (setting [5]) was more than 100 µM.

On to `Cc1cn([C@H]2C[C@H](O)[C@]3(CO)C[C@H]23)c(=O)[nH]c1=O` [N-MCT, N-methanocarbathymidine], for which the EC50 with Adenovirus 5 (AdV5) (setting [7]) is 57 ± 47 µM. Besides, in the data set on Adenovirus 5 (AdV5), the SI is 1.3. In data set [4] (setting [8]), this molecule returned a CC50 of 72 ± 33 µM.

These data come from patent US20220168310A1, “INHIBITION OF ADENOVIRUS WITH FILOCICLOVIR” (Microbiotix, Inc., priority 2019, published 2022).
